Laboratory results as given in PubChem BioAssay (NCI).
Values joined by “and” are separate entries in the source; they are usually repeats but may differ in a detail not shown here. Equal values may be shown once.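 Compound exposure: 48 hours, 5 concentrations, 96-well plates. GI50 is the concentration that inhibits growth by half. TGI marks complete inhibition of growth.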

How the values were obtained:
Assay in all cases: NCI tumour cell line growth inhibition, 48 h
CAKI-1 renal = test system: CAKI-1 renal
LOX IMVI melanoma = test system: LOX IMVI melanoma
MOLT-4 leukemia = test system: MOLT-4 leukemia
HCT-116 colon = test system: HCT-116 colon
ACHN renal = test system: ACHN renal
NCI-H23 lung = test system: NCI-H23 lung
HOP-62 NSCLC = test system: HOP-62 NSCLC
SN12C renal = test system: SN12C renal
DU-145 prostate = test system: DU-145 prostate
MDA-MB-231 breast = test system: MDA-MB-231 breast

Structure (SMILES) | TGI (CAKI-1 renal) | TGI (LOX IMVI melanoma) | TGI (MOLT-4 leukemia) [µM] | TGI (HCT-116 colon) | TGI (ACHN renal) | TGI (NCI-H23 lung) | TGI (HOP-62 NSCLC) | TGI (SN12C renal) | TGI (DU-145 prostate) | TGI (MDA-MB-231 breast) | GI50 (CAKI-1 renal) [µM] | GI50 (DU-145 prostate) [µM] | GI50 (MOLT-4 leukemia) [µM] | GI50 (HCT-116 colon) [µM] | GI50 (ACHN renal) | GI50 (NCI-H23 lung) [µM] | GI50 (MDA-MB-231 breast) | GI50 (HOP-62 NSCLC) | GI50 (SN12C renal) [µM] | GI50 (LOX IMVI melanoma)
Cc1c2c(c(C)c3c1[nH]c1ccccc13)CN(C)CC2 | 27.4 µM | 29.3 µM | > 100 | 29.4 µM | 35.7 µM | 56.3 µM | > 100 µM | 76.6 µM |  |  |  |  |  |  |  |  |  |  |  | 
O=C1OC(=O)C2C3C=CC(C12)C1C2C=CC2C31 (configuration not stated) | > 100 µM | > 100 µM | > 100 | > 100 µM | > 100 µM | > 100 µM | > 100 µM | > 100 µM |  |  |  |  |  |  |  |  |  |  |  | 
CCn1c2ccccc2c2c(-c3ccccc3)cc3c(c21)C(=O)N(c1ccccc1)C3=O | > 100 µM | > 100 µM | > 100 | > 100 µM | > 100 µM | > 100 µM |  | > 100 µM |  |  |  |  |  |  |  |  |  |  |  | 
C/C(=N\NC(=S)N1CCCCCC1)c1cccc2cccnc12 | 2.42 µM | 27.1 µM | > 100 | > 67.1 µM | 11.6 µM | 15.5 µM | > 70.7 µM |  | > 100 µM | > 79 µM |  |  |  |  |  |  |  |  |  | 
NC(=O)NC1C(C(=O)O)N(Cc2ccccc2)C(=O)N1Cc1ccccc1 (configuration not stated) | > 100 µM | > 100 µM | 10.9 | > 100 µM | > 100 µM | > 100 µM | > 100 µM |  |  |  |  |  |  |  |  |  |  |  |  | 
COc1ccc(-c2c3c(nc4n[nH]c(-c5ccc(Cl)cc5)c24)-c2ccccc2C(=O)C3=O)cc1 | 4.38 µM |  | 14.9 | 2.48 µM | 3.3 µM | 4.74 µM | 2.96 µM | 3.82 µM | 2.96 µM | 5.3 µM | 1.62 | 1.59 | 2.44 | 1.01 | 1.46 µM | 1.64 | 1.6 µM | 1.56 µM | 1.66 | 
CC1(C)Cc2c(Br)c(Br)c(Br)c(OCC(O)CN3CCN(c4ccccn4)CC3)c2O1 (configuration not stated) |  | 21.4 µM | 19 | 23.5 µM | 91.4 µM | 32 µM | 27.7 µM | 28.4 µM | 30.6 µM | 28.2 µM |  | 14.4 | 3.19 | 5.8 | 12.5 µM | 13.4 | 12.3 µM | 13.2 µM | 14.4 | 9.22 µM
CC(=O)c1ccc(NC(=O)COC(=O)c2cccc3c(=O)c4ccccc4[nH]c23)cc1 | > 100 µM | 51.5 µM | > 100 | 42.8 µM | > 100 µM | > 100 µM | 90.7 µM | > 100 µM |  |  |  |  |  |  |  |  |  |  |  | 
COc1c(N2CCN(CN3C(=O)C(=O)c4cc(Cl)ccc43)C(C)C2)c(F)cc2c(=O)c(C(=O)O)cn(C3CC3)c12 (configuration not stated) | > 100 µM | > 100 µM | > 100 | > 100 µM | > 100 µM | > 100 µM |  | > 100 µM | > 100 µM | > 100 µM | 24.7 | 70.6 | 4.98 | 29.8 | 32.1 µM | 22 | 27.3 µM |  | 48.2 | 19 µM
Cc1nc2cc(Nc3ccccc3C(=O)O)ccc2s1 | > 100 µM | > 100 µM | > 100 | > 100 µM | > 100 µM | > 100 µM | > 100 µM | > 100 µM |  |  |  |  |  |  |  |  |  |  |  | 
Cn1cc(C(=O)c2ccccc2)cc(C(=O)c2ccccc2)c1=O | > 100 µM | > 100 µM | > 100 |  | > 100 µM | > 100 µM | > 100 µM | > 100 µM |  |  |  |  |  |  |  |  |  |  |  | 
O=C(/C=C(\C(=O)c1cccs1)c1cccs1)c1ccc(C(=O)/C=C(\C(=O)c2cccs2)c2cccs2)cc1 | > 100 µM |  | > 100 | > 100 µM | > 100 µM |  | > 100 µM | > 100 µM | > 100 µM | > 100 µM |  |  |  |  |  |  |  |  |  | 
O=C1CN(c2cccc(Cl)c2)C(=O)CN1NCNN1CC(=O)N(c2cccc(Cl)c2)CC1=O | > 100 µM |  | > 100 | > 100 µM | > 100 µM | > 100 µM | > 100 µM | > 100 µM | > 100 µM |  |  |  |  |  |  |  |  |  |  | 
COc1ccc2c(c1)-c1nn(CCCN(C)C)c3ccc([N+](=O)[O-])c(c13)N2 | 4.63 µM and 6.34 µM | 0.957 µM and 4.08 µM |  | 4.02 µM and 4.42 µM | 1.25 µM and 3.69 µM | 2.08 µM and 2.3 µM | 1.06 µM and 5.26 µM | 3.68 µM and 10.1 µM | 4.72 µM and 2.86 µM | 2.79 µM and 12 µM |  |  |  |  | 0.102 µM and 0.26 µM |  | 0.198 µM and 1.17 µM | 0.104 µM and 0.686 µM |  | 0.101 µM and 0.345 µM
CN(CCC(=O)/C(=C\c1ccccc1)c1ccc(Cl)cc1)Cc1ccccc1 | 12.5 µM |  | 6.88 | 5.73 µM | 5.46 µM | 8.62 µM | 7.46 µM | 6.39 µM | 6.78 µM |  | 3.54 | 2.35 | 1.49 | 2.35 | 2.25 µM | 2.94 |  | 2.87 µM | 2.38 | 
NC(Cc1ccc2nc3c4ccccc4c(=O)cc-3oc2c1)C(=O)O (configuration not stated) | > 100 µM | > 100 µM |  | > 100 µM | > 100 µM | 65.1 µM | > 100 µM | > 100 µM | > 100 µM | > 100 µM |  |  |  |  |  |  |  |  |  | 
NC(=S)N1N=C2c3ccccc3CC[C@H]2[C@@H]1c1ccc(Cl)cc1 |  | > 100 µM | 89.8 | 37.3 µM | > 100 µM | 97.7 µM | > 100 µM | > 100 µM |  |  |  |  |  |  |  |  |  |  |  | 
COc1ccc(NC(=O)CC(=O)n2nc(C)c(N=Nc3ccccc3C(=O)O)c2C)cc1 | > 100 µM | > 100 µM | > 100 | > 100 µM |  | > 100 µM | > 100 µM | > 100 µM |  |  |  |  |  |  |  |  |  |  |  | 
O=c1c2cc3c(cc2c2cccc4c2n1CCC4)OCO3 | > 100 µM | > 100 µM | > 100 | 71.1 µM | > 100 µM | > 100 µM | > 100 µM | > 100 µM |  |  |  |  |  |  |  |  |  |  |  | 
COc1ccc(-c2csc(NC(=O)CN3CCN(c4cc5c(cc4F)c(=O)c(C(=O)O)cn5C4CC4)CC3)n2)cc1 | > 100 µM |  |  | > 100 µM | > 100 µM | > 100 µM | 26.1 µM | > 100 µM | > 100 µM |  | 3.57 | 3.35 |  | 3.1 | 3.25 µM | 2.9 |  | 3.59 µM | 3.37 | 
Cl.Fc1c[c-]c(-c2ccccn2)c(F)c1.[Pt].c1ccc([PH+](C[PH+](c2ccccc2)c2ccccc2)c2ccccc2)cc1 | 0.839 µM |  |  |  | 0.463 µM |  |  |  | 1.33 µM |  | 0.266 | 0.355 |  |  | 0.218 µM |  |  |  |  | 
